Test results taken from patent publication US20220119354A1, “DIAMINO-SUBSTITUTED PYRIDINES AND PYRIMIDINES AS HERBICIDES” (FMC Corporation, priority 2019, published 2022).

Key:
Type in all cases: in vivo
[1] = test system: barnyardgrass (Echinochloa crus-galli); test: Test A preemergence, barnyardgrass; conditions: 0 to 100 scale, 0 is no effect, 100 is complete control
Outline: (§1)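 Visual injury scores (0 no effect to 100 complete control) were assigned about 10 d after treatment by comparison with untreated controls. Test chemicals, formulated in a surfactant-containing non-phytotoxic solvent, were applied to soil at planting or to plants at the one- to two-leaf stage.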

kochia (Kochia scoparia) [2] = test: Test A preemergence, kochia; conditions: 0 to 100 scale, 0 is no effect, 100 is complete control
Outline: as §1

[3] = test system: ragweed (common ragweed, Ambrosia elatior); test: Test A preemergence, ragweed; conditions: 0 to 100 scale, 0 is no effect, 100 is complete control
Outline: as §1

[4] = test system: ryegrass, Italian (Lolium multiflorum); test: Test A preemergence, Italian ryegrass; conditions: 0 to 100 scale, 0 is no effect, 100 is complete control
Outline: as §1

[5] = test system: foxtail, giant (Setaria faberii); test: Test A preemergence, giant foxtail; conditions: 0 to 100 scale, 0 is no effect, 100 is complete control
Outline: as §1

[6] = test system: pigweed (Amaranthus retroflexus); test: Test A preemergence, pigweed; conditions: 0 to 100 scale, 0 is no effect, 100 is complete control
Outline: as §1

[7] = test system: barnyardgrass (Echinochloa crus-galli); test: Test A postemergence, barnyardgrass; conditions: 0 to 100 scale, 0 no effect, 100 complete control
Outline: as §1

kochia (Kochia scoparia) [8] = test: Test A postemergence, kochia; conditions: 0 to 100 scale, 0 no effect, 100 complete control
Outline: as §1

[9] = test system: ragweed (common ragweed, Ambrosia elatior); test: Test A postemergence, ragweed; conditions: 0 to 100 scale, 0 no effect, 100 complete control
Outline: as §1

[10] = test system: ryegrass, Italian (Lolium multiflorum); test: Test A postemergence, Italian ryegrass; conditions: 0 to 100 scale, 0 no effect, 100 complete control
Outline: as §1

[11] = test system: foxtail, giant (Setaria faberii); test: Test A postemergence, giant foxtail; conditions: 0 to 100 scale, 0 no effect, 100 complete control
Outline: as §1

[12] = test system: pigweed (Amaranthus retroflexus); test: Test A postemergence, pigweed; conditions: 0 to 100 scale, 0 no effect, 100 complete control
Outline: as §1

[13] = test system: wheat (Triticum aestivum); test: Test A postemergence, wheat; conditions: 0 to 100 scale, 0 no effect, 100 complete control
Outline: as §1

corn (Zea mays) = test: Test A postemergence, corn; conditions: 0 to 100 scale, 0 no effect, 100 complete control
Outline: as §1

[14] = test system: blackgrass (Alopecurus myosuroides); test: Test A postemergence, blackgrass; conditions: 0 to 100 scale, 0 no effect, 100 complete control
Outline: as §1

[15] = test system: galium (catchweed bedstraw, Galium aparine); test: Test A postemergence, galium; conditions: 0 to 100 scale, 0 no effect, 100 complete control
Outline: as §1

rice (Oryza sativa) = test: Test B flooded paddy test, rice; conditions: Flood, 250 g ai/ha, applied to paddy water, 2-leaf stage, visual evaluation after 13 to 15 d
Outline: (§2)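 2-leaf seedlings; pots flooded 3 cm above soil; compound added straight to paddy water; depth maintained. Greenhouse 13–15 d. Visual rating vs controls, 0–100 scale (0 = no effect, 100 = complete control).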

[16] = test system: sedge, umbrella (small-flower umbrella sedge, Cyperus difformis); test: Test B flooded paddy test, umbrella sedge; conditions: Flood, 250 g ai/ha, applied to paddy water, 2-leaf stage, visual evaluation after 13 to 15 d
Outline: as §2

[17] = test system: ducksalad (Heteranthera limosa); test: Test B flooded paddy test, ducksalad; conditions: Flood, 250 g ai/ha, applied to paddy water, 2-leaf stage, visual evaluation after 13 to 15 d
Outline: as §2

[18] = test system: barnyardgrass (Echinochloa crus-galli); test: Test B flooded paddy test, barnyardgrass; conditions: Flood, 250 g ai/ha, applied to paddy water, 2-leaf stage, visual evaluation after 13 to 15 d
Outline: as §2

Row | Structure (SMILES) | Barnyardgrass plant response rating ([1]; 125 g ai/ha) | Barnyardgrass plant response rating ([1]; 500 g ai/ha) | Kochia plant response rating (kochia (Kochia scoparia) [2]; 125 g ai/ha) | Kochia plant response rating (kochia (Kochia scoparia) [2]; 500 g ai/ha) | Ragweed plant response rating ([3]; 125 g ai/ha) | Ragweed plant response rating ([3]; 500 g ai/ha) | Ryegrass, Italian plant response rating ([4]; 125 g ai/ha) | Ryegrass, Italian plant response rating ([4]; 500 g ai/ha) | Foxtail, Giant plant response rating ([5]; 125 g ai/ha) | Foxtail, Giant plant response rating ([5]; 500 g ai/ha) | Pigweed plant response rating ([6]; 125 g ai/ha) | Pigweed plant response rating ([6]; 500 g ai/ha) | Plant response rating, Barnyardgrass ([7]; 125 g ai/ha) | Plant response rating, Barnyardgrass ([7]; 500 g ai/ha) | Plant response rating, Kochia (kochia (Kochia scoparia) [8]; 125 g ai/ha) | Plant response rating, Kochia (kochia (Kochia scoparia) [8]; 500 g ai/ha) | Plant response rating, Ragweed ([9]; 125 g ai/ha) | Plant response rating, Ragweed ([9]; 500 g ai/ha) | Plant response rating, Ryegrass, Italian ([10]; 125 g ai/ha) | Plant response rating, Ryegrass, Italian ([10]; 500 g ai/ha) | other results
1 | Nc1nc(N[C@@H](c2coc3ccccc23)C2CC2)ncc1C(F)(F)F [Compound 79, N2-[(R)-3-benzofuranylcyclopropylmethyl]-5-(trifluoromethyl)-2,4-pyrimidinediamine] | 90 | 100 | 0 | 0 | 100 | 100 | 100 | 100 | 100 | 100 | 90 | 100 | 70 | 100 | 90 | 90 | 80 | 90 | 60 | 80 | Plant response rating, Foxtail, Giant ([11]; 125 g ai/ha): 60; Plant response rating, Foxtail, Giant ([11]; 500 g ai/ha): 90; Plant response rating, Pigweed ([12]; 125 g ai/ha): 100; Plant response rating, Pigweed ([12]; 500 g ai/ha): 100; Plant response rating, Wheat ([13]; 125 g ai/ha): 0; Plant response rating, Wheat ([13]; 500 g ai/ha): 20; Plant response rating, Corn (corn (Zea mays); 125 g ai/ha): 0; Plant response rating, Corn (corn (Zea mays); 500 g ai/ha): 70; Plant response rating, Blackgrass ([14]; 125 g ai/ha): 60; Plant response rating, Blackgrass ([14]; 500 g ai/ha): 90; Plant response rating, Galium ([15]; 125 g ai/ha): 70; Plant response rating, Galium ([15]; 500 g ai/ha): 90; Plant response rating, Rice (0 to 100 scale, 0 is no effect, 100 is complete control) (rice (Oryza sativa)): 10; Plant response rating, Sedge, Umbrella (0 to 100 scale, 0 is no effect, 100 is complete control) [16]: 95; Plant response rating, Ducksalad (0 to 100 scale, 0 is no effect, 100 is complete control) [17]: 98; Plant response rating, Barnyardgrass (0 to 100 scale, 0 is no effect, 100 is complete control) [18]: 55
2 | CC[C@@H](Nc1ncc(C(F)(F)F)c(N)n1)c1coc2ccccc12 [Compound 80] | 90 | 100 | 90 | 100 | 100 | 100 | 70 | 100 | 90 | 100 | 90 | 100 | 40 | 100 | 80 | 90 | 90 | 90 | 0 | 90 | Plant response rating, Foxtail, Giant ([11]; 125 g ai/ha): 0; Plant response rating, Foxtail, Giant ([11]; 500 g ai/ha): 0; Plant response rating, Pigweed ([12]; 125 g ai/ha): 100; Plant response rating, Pigweed ([12]; 500 g ai/ha): 100; Plant response rating, Wheat ([13]; 125 g ai/ha): 30; Plant response rating, Wheat ([13]; 500 g ai/ha): 30; Plant response rating, Corn (corn (Zea mays); 125 g ai/ha): 20; Plant response rating, Corn (corn (Zea mays); 500 g ai/ha): 50; Plant response rating, Blackgrass ([14]; 125 g ai/ha): 0; Plant response rating, Blackgrass ([14]; 500 g ai/ha): 70; Plant response rating, Galium ([15]; 125 g ai/ha): 70; Plant response rating, Galium ([15]; 500 g ai/ha): 90; Plant response rating, Rice (0 to 100 scale, 0 is no effect, 100 is complete control) (rice (Oryza sativa)): 10; Plant response rating, Sedge, Umbrella (0 to 100 scale, 0 is no effect, 100 is complete control) [16]: 95; Plant response rating, Ducksalad (0 to 100 scale, 0 is no effect, 100 is complete control) [17]: 85; Plant response rating, Barnyardgrass (0 to 100 scale, 0 is no effect, 100 is complete control) [18]: 90
3 | CC[C@H](Nc1ncc(C(F)(F)F)c(N)n1)c1coc2ccccc12 [Compound 81] | 0 | 0 | 0 | 20 | 0 | 70 | 0 | 60 | 0 | 20 | 0 | 10 | 0 | 0 | 20 | 40 | 0 | 20 | 0 | 0 | Plant response rating, Foxtail, Giant ([11]; 125 g ai/ha): 0; Plant response rating, Foxtail, Giant ([11]; 500 g ai/ha): 10; Plant response rating, Pigweed ([12]; 125 g ai/ha): 0; Plant response rating, Pigweed ([12]; 500 g ai/ha): 80; Plant response rating, Wheat ([13]; 125 g ai/ha): 0; Plant response rating, Wheat ([13]; 500 g ai/ha): 0; Plant response rating, Corn (corn (Zea mays); 125 g ai/ha): 0; Plant response rating, Corn (corn (Zea mays); 500 g ai/ha): 0; Plant response rating, Blackgrass ([14]; 125 g ai/ha): 0; Plant response rating, Blackgrass ([14]; 500 g ai/ha): 0; Plant response rating, Galium ([15]; 125 g ai/ha): 0; Plant response rating, Galium ([15]; 500 g ai/ha): 30; Plant response rating, Rice (0 to 100 scale, 0 is no effect, 100 is complete control) (rice (Oryza sativa)): 0; Plant response rating, Sedge, Umbrella (0 to 100 scale, 0 is no effect, 100 is complete control) [16]: 0; Plant response rating, Ducksalad (0 to 100 scale, 0 is no effect, 100 is complete control) [17]: 0; Plant response rating, Barnyardgrass (0 to 100 scale, 0 is no effect, 100 is complete control) [18]: 0
4 | Nc1nc(N[C@@H](c2cc3ccccc3s2)C2CC2)ncc1C(F)(F)F [Compound 84] | 90 | 90 | 90 | 90 | 100 | 100 | 70 | 90 | 90 | 100 | 100 | 100 | 70 | 100 | 80 | 90 | 40 | 90 | 0 | 70 | Plant response rating, Foxtail, Giant ([11]; 125 g ai/ha): 50; Plant response rating, Foxtail, Giant ([11]; 500 g ai/ha): 90; Plant response rating, Pigweed ([12]; 125 g ai/ha): 100; Plant response rating, Pigweed ([12]; 500 g ai/ha): 100; Plant response rating, Wheat ([13]; 125 g ai/ha): 0; Plant response rating, Wheat ([13]; 500 g ai/ha): 0; Plant response rating, Corn (corn (Zea mays); 125 g ai/ha): 0; Plant response rating, Corn (corn (Zea mays); 500 g ai/ha): 0; Plant response rating, Blackgrass ([14]; 125 g ai/ha): 0; Plant response rating, Blackgrass ([14]; 500 g ai/ha): 0; Plant response rating, Galium ([15]; 125 g ai/ha): 60; Plant response rating, Galium ([15]; 500 g ai/ha): 80; Plant response rating, Rice (0 to 100 scale, 0 is no effect, 100 is complete control) (rice (Oryza sativa)): 20; Plant response rating, Sedge, Umbrella (0 to 100 scale, 0 is no effect, 100 is complete control) [16]: 90; Plant response rating, Ducksalad (0 to 100 scale, 0 is no effect, 100 is complete control) [17]: 65; Plant response rating, Barnyardgrass (0 to 100 scale, 0 is no effect, 100 is complete control) [18]: 85
5 | Cc1ccc2c(C(C)Nc3ncc(C(F)(F)F)c(N)n3)coc2c1 (stereo not drawn) [Compound 85] | 70 | 100 | 30 | 90 | 90 | 100 | 40 | 50 | 70 | 100 | 100 | 100 | 50 | 80 | 70 | 90 | 50 | 90 | 50 | 60 | Plant response rating, Foxtail, Giant ([11]; 125 g ai/ha): 40; Plant response rating, Foxtail, Giant ([11]; 500 g ai/ha): 90; Plant response rating, Pigweed ([12]; 125 g ai/ha): 90; Plant response rating, Pigweed ([12]; 500 g ai/ha): 10; Plant response rating, Wheat ([13]; 125 g ai/ha): 30; Plant response rating, Wheat ([13]; 500 g ai/ha): 30; Plant response rating, Corn (corn (Zea mays); 125 g ai/ha): 10; Plant response rating, Corn (corn (Zea mays); 500 g ai/ha): 40; Plant response rating, Blackgrass ([14]; 125 g ai/ha): 40; Plant response rating, Blackgrass ([14]; 500 g ai/ha): 50; Plant response rating, Galium ([15]; 125 g ai/ha): 80; Plant response rating, Galium ([15]; 500 g ai/ha): 90; Plant response rating, Rice (0 to 100 scale, 0 is no effect, 100 is complete control) (rice (Oryza sativa)): 0; Plant response rating, Sedge, Umbrella (0 to 100 scale, 0 is no effect, 100 is complete control) [16]: 85; Plant response rating, Ducksalad (0 to 100 scale, 0 is no effect, 100 is complete control) [17]: 30; Plant response rating, Barnyardgrass (0 to 100 scale, 0 is no effect, 100 is complete control) [18]: 0
